Source: patent publication US20110212040A1, “STABILIZED SUNSCREEN COMPOSITIONS” (priority 2010, published 2011)
“Also recorded” adds a separate entry of the source. Blank lines part the entries; values can stand above or below the molecule they belong to.

What was measured:
Type in all cases: physicochemical
[1] = Stabilization of avobenzone in presence of single carotenoids; conditions: for protective activity vs avobenzone degradation: lycopene 1.6 mg/mL in squalane
Description: (§1) Key elements for this test are: consistent irradiation (known and consistent light source and positioning of samples with respect to the light source); optimal exposure of the sample to UV light (thin but consistent layer sample, in a flat vessel with no high walls which could screen out UV light); consistent sampling (especially recovery of irradiated material for analysis). Under the instant method, irradiation takes place in the Innova 4340 incubator, fitted with UV tubes (UVC: Osram Puritec-HNS3OVG13-G30T8/OF; UVB: Voltarc E312/F30T8; UVA: Sylvania F30T8/350BL)—allowing for intense, known, reproducible and even irradiation (a known illuminant is the single source of light—a wide light source and the incubator's metallic walls also help achieve even illumination). Samples are exposed in Brand plastic vial caps made of polyethylene, 26 mm diameter, 5 mm wall height, 400 μL sample volume, in triplicates, generally introduced as solutions in suitable oil carriers)—enabling irradiation of a relatively even and thin layer while allowing consistent sample recovery.
(§2) Analysis of the avobenzone content of the samples was done by UV spectroscopy (absorption @ 350 nm for avobenzone; sample dilution ×400 in hexanes). As phytofluene absorbs in the UV range relevant to our measure of avobenzone, blank TCLC samples (i.e. without avobenzone) were irradiated in parallel with test samples and absorption @ 350 nm was measured before and after irradiation. This absorption was deducted from the avobenzone absorption data, producing the corrected data shown here (unless noted otherwise).
Based on the above results, degradation of avobenzone was next measured in the presence of single carotenoids, specifically: phytoene (PE), phytofluene (PF), zeta-carotene (ZC) and Lycopene (LY).
Carotenoids levels: for the purposes of these experiments, phytoene was tested at 1.3 mg/mL; phytofluene was tested at 0.3 mg/mL; zeta-carotene and lycopene were tested at 1.6 mg/mL.
Irradiation was carried out with combined UVA+UVB (4:2, 18 h) and UVA+UVB+UVC (3:2:1, 10 h).

[2] = Effect of phytoene/phytofluene levels and ratio variations on avobenzone stabilization; conditions: combined UVA+UVB+UVC 10 h; low 0.3 mg/mL, high 1.3 mg/mL; listed as PE
Description: as §1, with “Samples are exposed in Brand plastic vial caps made of polyethylene, 26 mm diameter, 5 mm wall height, 400 μL sample volume, in triplicates, generally introduced as solutions in suitable oil carriers)—enabling irradiation of a relatively even and thin layer while allowing consistent sample recovery.” left out
as §2, with “This absorption was deducted from the avobenzone absorption data, producing the corrected data shown here (unless noted otherwise).” left out

[3] = UV absorbance spectra / absorption maximum; conditions: FIG. 10
[4] = 3% avobenzone cream, in vitro SPF/UVA-PF and photo stability (Colipa 2009); conditions: UVA dose 10 J/cm^2, Suntest
Description: Following the convincing results from the studies described above, a preliminary study with a basic cream containing 3% avobenzone labelled 703-1, to which phytoene and phytofluene (0.0075%), was added and labelled 703-2, was conducted to determine the contribution of phytofluene to sun protection and photo stability of avobenzone under UVA following the Colipa 2009 in vitro Standard Guidelines. Approximately 1.7 mg/cm^2 of each composition is applied to 5 PMMA plates (Helioplates-HD-6, Helioscreen®, Source: Labsphere, North Sutton, N.H.), respectively, and allowed to equilibrate for at least 15 minutes. Absorbance spectra from 5 locations on each plate are measured using a UV2000 Sunscreen Analyzer (Labsphere, North Sutton, N.H.). […] Plate temperatures are 25-35° C. Mean UVA protection factors at each UV dose are then computed for each test product, using Colipa UVA Protection Factor Test Method Spreadsheet, and mean absorbance spectra from 290 to 400 nm is obtained.

protective activity vs avobenzone degradation ([1]; combined UVA+UVB 4:2, 18 h): slight protective activity
protective activity vs avobenzone degradation ([1]; combined UVA+UVB+UVC 3:2:1, 10 h): no significant activity
Compound: CC(C)=CCC/C(C)=C/C=C/C(C)=C/C=C/C(C)=C/C=C/C=C(C)/C=C/C=C(C)/C=C/C=C(\C)CCC=C(C)C [Lycopene]

λmax of absorbance spectra [3]: 286 nm
Compound: CC(C)=CCC/C(C)=C/CC/C(C)=C/CC/C(C)=C/C=C/C=C(\C)CC/C=C(\C)CC/C=C(\C)CCC=C(C)C [phytoene]
protective activity vs degradation of avobenzone [2]: level-dependent; also recorded: roughly comparable activities

stabilizing / protective effect on avobenzone ([1]; UVA+UVB (18 h) and UVA+UVB+UVC (10 h), not distinguished, phytoene 1.3, phytofluene 0.3, zeta-carotene 1.6 mg/mL): some protective activity
Compound: CC(C)=CCC/C(C)=C/CC/C(C)=C/C=C/C(C)=C/C=C/C=C(C)/C=C/C=C(\C)CC/C=C(\C)CCC=C(C)C [Zeta-carotene, zeta-carotene]

λmax of absorbance spectra [3]: 348 nm
Compound: CC(C)=CCC/C(C)=C/CC/C(C)=C/C=C/C(C)=C/C=C/C=C(\C)CC/C=C(\C)CC/C=C(\C)CCC=C(C)C [phytofluene]
boost to UVA-PF [4]: addition to UVA-Pf
